Results reported in patent US20240116985A1, “STAPLED PEPTIDES AND METHODS THEREOF” (priority 2020, published 2024).
Values after ≈ are worked out from the molar mass of the structure shown. Like-named read-outs stand apart in the source and are kept apart here.

Columns and labels:
[1] = biological target: T1, full-length beta-Catenin (Uniprot ID P35222) (Homo sapiens, UniProt P35222); experiment: Fluorescence polarization IC50 (beta-catenin / 5FAM-TCF4 10-53 competition); format: binding
T1 construct: 10 nM full-length beta-Catenin (Uniprot ID P35222)
T1 sequence (P35222 1-781): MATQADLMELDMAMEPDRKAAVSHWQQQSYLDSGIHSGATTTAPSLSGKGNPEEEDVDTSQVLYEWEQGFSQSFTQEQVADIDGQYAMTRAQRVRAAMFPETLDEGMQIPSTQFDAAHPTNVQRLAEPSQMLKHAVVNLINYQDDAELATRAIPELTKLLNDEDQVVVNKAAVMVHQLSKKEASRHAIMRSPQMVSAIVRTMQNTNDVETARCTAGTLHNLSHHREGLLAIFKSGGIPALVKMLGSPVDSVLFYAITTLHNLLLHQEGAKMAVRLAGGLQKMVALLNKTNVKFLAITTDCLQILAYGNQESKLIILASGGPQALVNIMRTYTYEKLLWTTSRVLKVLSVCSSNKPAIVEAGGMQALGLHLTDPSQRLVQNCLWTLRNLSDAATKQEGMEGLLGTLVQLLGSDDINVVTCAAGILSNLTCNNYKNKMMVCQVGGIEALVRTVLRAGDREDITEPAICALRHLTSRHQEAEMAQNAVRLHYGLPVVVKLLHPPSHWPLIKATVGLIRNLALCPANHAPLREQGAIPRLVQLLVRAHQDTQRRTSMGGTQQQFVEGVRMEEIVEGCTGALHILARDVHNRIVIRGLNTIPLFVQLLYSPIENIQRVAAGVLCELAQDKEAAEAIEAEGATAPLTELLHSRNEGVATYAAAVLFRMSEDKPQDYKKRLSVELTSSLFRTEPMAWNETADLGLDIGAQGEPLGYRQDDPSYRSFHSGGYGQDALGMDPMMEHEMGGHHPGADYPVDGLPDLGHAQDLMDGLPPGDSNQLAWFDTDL

CHI Log D procedure = format: physicochemical; settings: for CHI Log D: pH 7.4; for chromatographic logD: pH 7.4, CHI Log D
Solubility in PBS = format: physicochemical
In short: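 HPLC quantitation of peptide remaining in the PBS supernatant after ultracentrifugation, referenced to a 50 μM solution in DMSO.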

[2] = fluorescence polarization, beta-catenin, read-out: FP EC50
[3] = fluorescence polarization, read-out: beta-Catenin FP IC50

Compound | IC50 [1, 2] [µM] | IC50 ([1]; read-out: beta-Catenin FP IC50) [µM] | CHI Log D (CHI Log D procedure) | Solubility (Solubility in PBS) [µM] | chromatographic logD (CHI Log D procedure) | Solubility (Solubility in PBS; Solubility (uM)) [µM] | IC50 [1, 3] [µM]
CC(=O)N1CCC[C@]12CC=CCCCC1(CCCC=CCCCOC(=O)N3CC[C@@](C(=O)N[C@@H](Cc4ccccc4Cl)C(=O)N[C@@H](Cc4csc5ccccc45)C(=O)N[C@@H](CCC(N)=O)C(N)=O)(C3)NC(=O)[C@H](CC(C)C)NC(=O)[C@H](Cc3ccccc3)NC(=O)[C@H](C)NC(=O)[C@H](C)NC(=O)[C@H](CCC(=O)O)NC(=O)[C@H](CC(=O)O)NC1=O)NC(=O)[C@H](CC1CCCCC1)NC(=O)[C@H](CC(=O)O)NC2=O (stereo partly drawn) [I-1077, Ac-PL3-Asp-Cha-B5-Asp-Glu-Ala-Ala-Phe-Leu-PyrS2-2C1F-BztA-Gln-NH2] | 0.324 | 0.324 | 2.06 | 10 (≈ 19.9 µg/mL) |  |  | 
CC(=O)N1CCC[C@]12CC=CCCCC1(CCCC=CCCCOC(=O)N3CC[C@@](C(=O)N[C@@H](Cc4ccccc4Cl)C(=O)N[C@@H](Cc4csc5ccccc45)C(=O)N[C@@H](CCC(N)=O)C(N)=O)(C3)NC(=O)[C@H](CC(C)C)NC(=O)[C@H](Cc3ccccc3)NC(=O)[C@H](C)NC(=O)[C@H](C)NC(=O)[C@H](CCC(=O)O)NC(=O)[C@H](CC(=O)O)NC1=O)NC(=O)[C@H](CC1CCCCC1)NC(=O)[C@H](CC(=O)O)NC2=O (stereo partly drawn) [I-1078, Ac-PL3-Asp-Cha-B5-Asp-Glu-Ala-Ala-Phe-Leu-PyrS2-2C1F-BztA-Gln-NH2] | 0.352 | 0.352 | 2.162 | 27 (≈ 53.6 µg/mL) |  |  | 
CC(=O)N1CCC[C@]12CC=CCCCC1(CCCC=CCCCOC(=O)N3CC[C@@](C(=O)N[C@@H](Cc4ccccc4Cl)C(=O)N[C@@H](Cc4csc5ccccc45)C(=O)N[C@@H](CCC(N)=O)C(=O)NCCCCCCN=[N+]=[N-])(C3)NC(=O)[C@H](Cc3ccccc3)NC(=O)[C@H](Cc3ccccc3)NC(=O)[C@H](C)NC(=O)[C@H](C)NC(=O)[C@H](CN(CC(=O)O)CC(F)(F)F)NC(=O)[C@H](CC(=O)O)NC1=O)NC(=O)[C@H](CC(C)(C)C)NC(=O)[C@H](CC(=O)O)NC2=O (stereo partly drawn) [I-1085, Ac-PL3-Asp-Npg-B5-Asp-TfeGA-Ala-Ala-Phe-Phe-PyrS2-2C1F-BztA-Gln-6AzHex] | 0.39 |  |  | 10 (≈ 22.2 µg/mL) | 3.7 |  | 
CC(=O)N1CCC[C@]12CC=CCCCC1(CCCC=CCCCCCC[C@@](C)(C(=O)N[C@@H](Cc3ccccc3Cl)C(=O)N[C@@H](Cc3csc4ccccc34)C(=O)N[C@@H](C(N)=O)[C@H](C)O)NC(=O)[C@H]([C@@H](C)O)NC(=O)[C@H](Cc3ccccc3)NC(=O)[C@H](C)NC(=O)[C@H](C)NC(=O)[C@H](CCC(=O)O)NC(=O)[C@H](CC(=O)O)NC1=O)NC(=O)[C@H](CC(C)(C)C)NC(=O)[C@H](CC(=O)O)NC2=O (stereo partly drawn) [I-1093, Ac-PL3-Asp-Npg-B5-Asp-Glu-Ala-Ala-Phe-Thr-S8-2C1F-BztA-dThr-NH2] | 0.043 | 0.043 | 3.22 | 48 (≈ 90.1 µg/mL) |  |  | 
CC(=O)N1CCC[C@]12CC=CCCCC1(CCCC=CCCCCCC[C@@](C)(C(=O)N[C@@H](Cc3ccccc3Cl)C(=O)N[C@@H](Cc3csc4ccccc34)C(=O)N[C@@H](C(N)=O)[C@H](C)O)NC(=O)[C@H](CC(C)C)NC(=O)[C@H](Cc3ccccc3)NC(=O)[C@H](C)NC(=O)[C@H](C)NC(=O)[C@H](CCC(=O)O)NC(=O)[C@H](CC(=O)O)NC1=O)NC(=O)[C@H](CC(C)(C)C)NC(=O)[C@H](CC(=O)O)NC2=O (stereo partly drawn) [I-1098, Ac-PL3-Asp-Npg-B5-Asp-Glu-Ala-Ala-Phe-Leu-S8-2ClF-BztA-dThr-NH2] |  | 0.1 |  | 10 (≈ 18.9 µg/mL) | 3.54 |  | 
CC(=O)N1CCC[C@]12CC=CCCCC1(CCCC=CCCCOC(=O)N3CC[C@@](C(=O)N[C@@H](Cc4ccccc4F)C(=O)N[C@@H](Cc4csc5ccccc45)C(=O)N[C@@H](CO)C(N)=O)(C3)NC(=O)[C@H](CO)NC(=O)[C@H](Cc3ccccc3)NC(=O)[C@H](C)NC(=O)[C@H](C)NC(=O)[C@H](CC(=O)O)NC(=O)[C@H](CC(=O)O)NC1=O)NC(=O)[C@H](CC1CCCCC1)NC(=O)[C@H](CC(=O)O)NC2=O (stereo partly drawn) [I-1102, Ac-PL3-Asp-Cha-B5-Asp-Asp-Ala-Ala-Phe-Ser-PyrS2-2FF-BztA-Ser-NH2] |  | 0.016 |  | 10 (≈ 18.9 µg/mL) | 2.39 |  | 
CC(=O)N1CCC[C@]12CC=CCCCC1(CCCC=CCCCOC(=O)N3CC[C@@](C(=O)N[C@@H](Cc4ccccc4Cl)C(=O)N[C@@H](Cc4csc5ccccc45)C(=O)N[C@@H](CO)C(N)=O)(C3)NC(=O)[C@H](CC(C)C)NC(=O)[C@H](Cc3ccccc3)NC(=O)[C@H](C)NC(=O)[C@H](C)NC(=O)[C@H](CC(=O)O)NC(=O)[C@H](CC(=O)O)NC1=O)NC(=O)[C@H](CC1CCCCC1)NC(=O)[C@H](CC(=O)O)NC2=O (stereo partly drawn) [I-1112, Ac-PL3-Asp-Cha-B5-Asp-Asp-Ala-Ala-Phe-Leu-PyrS2-2C1F-BztA-Ser-NH2] |  | 0.04 |  | 10 (≈ 19.3 µg/mL) | 2.72 |  | 
CC(=O)N1CCC[C@]12CC=CCCCC1(CCCC=CCCCOC(=O)N3CC[C@@](C(=O)N[C@@H](Cc4ccccc4Cl)C(=O)N[C@@H](Cc4csc5ccccc45)C(=O)N[C@@H](CO)C(N)=O)(C3)NC(=O)[C@H](CC3CCCCC3)NC(=O)[C@H](Cc3ccccc3)NC(=O)[C@H](C)NC(=O)[C@H](C)NC(=O)[C@H](CC(=O)O)NC(=O)[C@H](CC(=O)O)NC1=O)NC(=O)[C@H](CC1CCCCC1)NC(=O)[C@H](CC(=O)O)NC2=O (stereo partly drawn) [I-1113, Ac-PL3-Asp-Cha-B5-Asp-Asp-Ala-Ala-Phe-Cha-PyrS2-2C1F-BztA-Ser-NH2] |  | 0.064 |  | 10 (≈ 19.7 µg/mL) | 2.99 |  | 
CC(=O)N1CCC[C@]12CC=CCCCC1(CCCC=CCCCOC(=O)N3CC[C@@](C(=O)N[C@@H](Cc4ccccc4Cl)C(=O)N[C@@H](Cc4csc5ccccc45)C(=O)N[C@@H](CO)C(N)=O)(C3)NC(=O)[C@H](CC(C)C)NC(=O)[C@H](Cc3ccccc3)NC(=O)[C@H](C)NC(=O)[C@H](C)NC(=O)[C@H](CC(=O)O)NC(=O)[C@H](CC(=O)O)NC1=O)NC(=O)[C@H](Cc1cccc3ccccc13)NC(=O)[C@H](CC(=O)O)NC2=O (stereo partly drawn) [I-1116, Ac-PL3-Asp-1NapA-B5-Asp-Asp-Ala-Ala-Phe-Leu-PyrS2-2C1F-BztA-Ser-NH2] |  | 0.04 |  |  | 2.62 | 13 (≈ 25.7 µg/mL) | 
CC(=O)N1CCC[C@]12CC=CCCCC1(CCCC=CCCCOC(=O)N3CC[C@@](C(=O)N[C@@H](Cc4ccccc4Cl)C(=O)N[C@@H](Cc4csc5ccccc45)C(=O)N[C@@H](CO)C(N)=O)(C3)NC(=O)[C@H](CC(C)C)NC(=O)[C@H](Cc3ccccc3)NC(=O)[C@H](C)NC(=O)[C@H](C)NC(=O)[C@H](CC(=O)O)NC(=O)[C@H](CC(=O)O)NC1=O)NC(=O)[C@H](Cc1ccc3ccccc3c1)NC(=O)[C@H](CC(=O)O)NC2=O (stereo partly drawn) [I-1117, Ac-PL3-Asp-2NapA-B5-Asp-Asp-Ala-Ala-Phe-Leu-PyrS2-2C1F-BztA-Ser-NH2] |  | 0.055 |  | 10 (≈ 19.7 µg/mL) | 2.61 |  | 
CC(=O)N1CCC[C@]12CC=CCCCC1(CCCC=CCCCOC(=O)N3CC[C@@](C(=O)N[C@@H](Cc4ccccc4)C(=O)N[C@@H](Cc4csc5ccccc45)C(=O)N[C@@H](CCC(N)=O)C(N)=O)(C3)NC(=O)[C@H](CC(C)C)NC(=O)[C@H](Cc3ccc(C(F)(F)F)cc3)NC(=O)[C@H](C)NC(=O)[C@H](C)NC(=O)[C@H](CC(=O)O)NC(=O)[C@H](CC(=O)O)NC1=O)NC(=O)[C@H](CC(C)(C)C)NC(=O)[C@H](CC(=O)O)NC2=O (stereo partly drawn) [I-1129, Ac-PL3-Asp-Npg-B5-Asp-Asp-Ala-Ala-4F3MeF-Leu-PyrS2-Phe-BztA-Gln-NH2] |  | 0.039 |  |  | 2.33 | 29 (≈ 57.4 µg/mL) | 
CC(=O)N1CCC[C@]12CC=CCCCC1(CCCC=CCCCOC(=O)N3CC[C@@](C(=O)N[C@@H](Cc4ccsc4)C(=O)N[C@@H](Cc4csc5ccccc45)C(=O)N[C@@H](CCC(N)=O)C(N)=O)(C3)NC(=O)[C@H](CC(N)=O)NC(=O)[C@H](Cc3ccccc3)NC(=O)[C@H](C)NC(=O)[C@H](C)NC(=O)[C@H](CC(=O)O)NC(=O)[C@H](CC(=O)O)NC1=O)NC(=O)[C@H](CC(C)(C)C)NC(=O)C[C@H](CC(=O)O)NC2=O (stereo partly drawn) [I-1159, Ac-PL3-RbGlu-Npg-B5-Asp-Asp-Ala-Ala-Phe-Asn-PyrS2-3Thi-BztA-Gln-NH2] |  |  |  |  | 1.88 | 45 (≈ 86.9 µg/mL) | 0.061
CC(=O)N1CCC[C@]12CC=CCCCC1(CCCC=CCCCCCC[C@@](C)(C(=O)N[C@@H](Cc3ccsc3)C(=O)N[C@@H](Cc3csc4ccccc34)C(=O)N[C@@H](CCC(N)=O)C(N)=O)NC(=O)[C@H](CC(N)=O)NC(=O)[C@H](Cc3ccccc3)NC(=O)[C@H](C)NC(=O)[C@H](C)NC(=O)[C@H](CC(=O)O)NC(=O)[C@H](CC(=O)O)NC1=O)NC(=O)[C@H](CC(C)(C)C)NC(=O)C[C@H](CC(=O)O)NC2=O (stereo partly drawn) [I-1163, Ac-PL3-RbGlu-Npg-B5-Asp-Asp-Ala-Ala-Phe-Asn-S8-3Thi-BztA-Gln-NH2] | 0.691 |  | 2.059 | 48 (≈ 90.7 µg/mL) |  |  | 0.691
